We go through six compounds from patent publication US20120040987A1, “DERIVATIVES OF 6-(6-NH-SUBSTITUTED-TRIAZOLOPYRIDAZINE-SULFANYL) BENZOTHIAZOLES AND BENZIMIDAZOLES, PREPARATION THEREOF, USE THEREOF AS DRUGS, AND USE THEREOF AS MET INHIBITORS” (SANOFI, priority 2009, published 2012).

For experiment [1], the system named is HCT116 cells and MKN45 cells. The experiment is described as follows: Test C: measurement of cell proliferation by 14C-thymidine pulse. Type of experiment: cell-based. The settings on record: 14C-thymidine incorporation, 96 h of treatment; cell line not given. On the procedure:
The cells are seeded into Cytostar 96-well plates in 180 μl for 4 hours at 37° C. and 5% CO2: HCT116 cells at a rate of 2500 cells per well in DMEM medium+10% foetal calf serum+1% L-glutamine and MKN45 cells at a rate of 7500 cells per well in RPMI medium+10% foetal calf serum+1% L-glutamine. After these 4 hours of incubation, the products are added in 10 μl as a 20-fold concentrated solution according to the dilution method mentioned for the ELISA. The products are tested at 10 concentrations in duplicate from 10 000 nM to 0.3 nM with an increment of 3.
After treatment for 72 h, add 10 μl of ^14C-thymidine at 10 μCi/ml to obtain 0.1 μCi per well. The ^14C-thymidine incorporation is measured on a Micro-Beta machine (Perkin-Elmer) after 24 hours of pulse and 96 h of treatment.
All the steps of the assay are automated on BIOMEK 2000 or TECAN stations.

The target of experiment [2] is T1, MET (Homo sapiens, UniProt P08581). The experiment is described as follows: Test A: HTRF MET assay in 96-well format. The class given is biochemical. Set-up: The His-Tev-MET (956-1390) recombinant DNA in pFastBac (Invitrogen) is transfected into insect cells; His tag (N, cleaved yes); Tev cleavage site (N, cleaved yes); made in house; host or cells: SF21 insect cells (baculovirus, pFastBac). The settings on record: MET 5 nM, 10 μM ATP. On the procedure:
The His-Tev-MET (956-1390) recombinant DNA in pFastBac (Invitrogen) is transfected into insect cells, and after several viral amplification steps, the final baculovirus stock is tested for the expression of the protein of interest.
After infection for 72 h at 27° C. with the recombinant virus, the SF21 cell cultures are harvested by centrifugation and the cell pellets are stored at −80° C.
The cell pellets are resuspended in lysis buffer (buffer A [50 mM HEPES, pH 7.5, 250 mM NaCl, 10% glycerol, 1 mM TECP]; +cocktail of protease inhibitors, Roche Diagnostics, without EDTA, ref 1873580), stirred at 4° C. until the mixture is homogeneous and then lyzed mechanically using a “Dounce” type apparatus.
After centrifugation, the lysis supernatant is incubated for 2 h at 4° C. with nickel chelate resin (His-Trap 6 Fast Flow™, GE HealthCare). After washing with 20 volumes of buffer A, the suspension is packed into a column, and the proteins are eluted with a gradient of buffer B ([…]+290 mM imidazole).
The fractions containing the protein of interest for the purpose of electrophoretic analysis (SDS PAGE) are combined, concentrated by ultrafiltration (10 kDa cut-off) and injected onto an exclusion chromatography column (Superdex™ 200, GE HealthCare) equilibrated in buffer A.
After enzymatic cleavage of the histidine tag, the protein is reinjected onto a new IMAC nickel chelate chromatography column (His-Trap 6 Fast Flow™, GE HealthCare) equilibrated in buffer A. The fractions eluted with a gradient of buffer B and containing the protein of interest after electrophoresis (SDS PAGE) are finally combined and conserved at −80° C.
For the production of autophosphorylated protein, the previous fractions are incubated for 1 h at ambient temperature after the addition of 2 mM ATP, 2 mM MgCl2, and 4 mM Na3VO4. After the reaction has been stopped with 5 mM of EDTA, the reaction mixture is injected onto a HiPrep desalifying column (GE HealthCare) preequilibrated in buffer A+4 mM Na3VO4, and the fractions containing the protein of interest (SDS PAGE analysis) are combined and stored at −80° C. The degree of phosphorylation is verified by mass spectrometry (LC-MS) and by peptide mapping.
MET at a final concentration of 5 nM is incubated in a final volume of 50 μl of enzymatic reaction in the presence of the test molecule (for a final concentration range of from 0.17 nM to 10 μM, 3% DMSO final concentration) in 10 mM MOPS buffer, pH 7.4, 1 mM DTT, 0.01% Tween 20. The reaction is initiated with the substrate solution to obtain final concentrations of 1 μg/ml poly-(GAT), 10 μM ATP and 5 mM MgCl2. After incubation for 10 min at ambient temperature, the reaction is stopped with a 30 μl mix so as to obtain a final solution of 50 mM Hepes pH 7.5, 500 mM potassium fluoride, 0.1% BSA and 133 mM EDTA in the presence of 80 ng of streptavidin 61SAXLB Cis-Bio Int. and 18 ng of anti-phosphotyrosine Mab PT66-Europium Cryptate per well. After incubation for 2 hours at ambient temperature, the reading is taken at 2 wavelengths, 620 nm and 665 nm, on a reader for the TRACE/HTRF technique and the % inhibition is calculated from the 665/620 ratios.
Target sequence in this assay (P08581 956-1390): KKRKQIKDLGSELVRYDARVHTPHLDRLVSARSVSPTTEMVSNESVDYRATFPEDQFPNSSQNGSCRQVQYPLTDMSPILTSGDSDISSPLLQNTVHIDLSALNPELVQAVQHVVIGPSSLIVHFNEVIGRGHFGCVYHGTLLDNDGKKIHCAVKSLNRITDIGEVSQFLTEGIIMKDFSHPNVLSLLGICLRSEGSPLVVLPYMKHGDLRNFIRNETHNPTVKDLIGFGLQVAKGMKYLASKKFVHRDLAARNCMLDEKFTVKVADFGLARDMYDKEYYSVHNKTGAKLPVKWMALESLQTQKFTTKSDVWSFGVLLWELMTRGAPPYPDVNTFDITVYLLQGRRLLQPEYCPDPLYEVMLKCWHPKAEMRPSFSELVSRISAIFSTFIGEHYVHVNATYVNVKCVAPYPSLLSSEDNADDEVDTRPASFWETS

The target of experiment [3] is T1, MET. The experiment is described as follows: Test B: inhibition of the autophosphorylation of MET, ELISA technique (pppY1230, 1234, 1235) on MKN45 cell lysates. The settings on record: MKN45 cells, 1 h treatment, phosphoMET ELISA. Type of experiment: cell-based. Set-up: endogenous in cells; host or cells: MKN45 cells. The protocol: a) Cell lysates: Seed MKN45 cells into 96-well plates (Cell coat BD polylysine) at 20 000 cells/well in 200 μl in RPMI medium+10% FCS+1% L-glutamine. Leave to adhere for 24 hours in an incubator.
The cells are treated the day after seeding with the products at 6 concentrations in duplicate for 1 h. At least 3 control wells are treated with the same final amount of DMSO.
Product dilution: Stock at 10 mM in pure DMSO—range from 10 mM to 30 μM with an increment of 3 in pure DMSO—intermediate 1/50 dilutions in culture medium and then removal of 10 μl added directly to the cells (200 μl): final range of 10 000 to 30 nM.
At the end of the incubation, carefully remove the supernatant and rinse with 200 μl of PBS. Next, place 100 μl of lysis buffer directly in the wells on ice and incubate at 4° C. for 30 minutes. Lysis buffer: 10 mM Tris HCl, pH7.4, 100 mM NaCl, 1 mM EDTA, 1 mM EGTA, 1% Triton X-100, 10% glycerol, 0.1% SDS, 0.5% deoxycholate, 20 mM NaF, 2 mM Na3VO4, 1 mM PMSF and cocktail of antiproteases.
The 100 μl of lysates are transferred into a V-bottomed polypropylene plate and the ELISA is performed immediately, or the plate is frozen at −80° C.
Into each well of the kit plate, add 70 μl of kit dilution buffer+30 μL of cell lysate or 30 μl of lysis buffer for the blanks. Incubate for 2 h with gentle agitation at ambient temperature.
Rinse the wells 4 times with 400 μl of kit washing buffer. Incubate with 100 μl of anti-phospho MET antibody for 1 hour at ambient temperature.
Rinse the wells 4 times with 400 μl of kit washing buffer. Incubate with 100 μl of anti-rabbit HRP antibody for 30 minutes at ambient temperature (except for the wells of chromogen alone).
Rinse the wells 4 times with 400 μl of kit washing buffer. Introduce 100 μL of chromogen and incubate for 30 minutes in the dark at ambient temperature.
Stop the reaction with 100 μl of stop solution. Read without delay at […], 0.1 second on Wallac Victor plate reader.
Target sequence in this assay (P08581 25-1390): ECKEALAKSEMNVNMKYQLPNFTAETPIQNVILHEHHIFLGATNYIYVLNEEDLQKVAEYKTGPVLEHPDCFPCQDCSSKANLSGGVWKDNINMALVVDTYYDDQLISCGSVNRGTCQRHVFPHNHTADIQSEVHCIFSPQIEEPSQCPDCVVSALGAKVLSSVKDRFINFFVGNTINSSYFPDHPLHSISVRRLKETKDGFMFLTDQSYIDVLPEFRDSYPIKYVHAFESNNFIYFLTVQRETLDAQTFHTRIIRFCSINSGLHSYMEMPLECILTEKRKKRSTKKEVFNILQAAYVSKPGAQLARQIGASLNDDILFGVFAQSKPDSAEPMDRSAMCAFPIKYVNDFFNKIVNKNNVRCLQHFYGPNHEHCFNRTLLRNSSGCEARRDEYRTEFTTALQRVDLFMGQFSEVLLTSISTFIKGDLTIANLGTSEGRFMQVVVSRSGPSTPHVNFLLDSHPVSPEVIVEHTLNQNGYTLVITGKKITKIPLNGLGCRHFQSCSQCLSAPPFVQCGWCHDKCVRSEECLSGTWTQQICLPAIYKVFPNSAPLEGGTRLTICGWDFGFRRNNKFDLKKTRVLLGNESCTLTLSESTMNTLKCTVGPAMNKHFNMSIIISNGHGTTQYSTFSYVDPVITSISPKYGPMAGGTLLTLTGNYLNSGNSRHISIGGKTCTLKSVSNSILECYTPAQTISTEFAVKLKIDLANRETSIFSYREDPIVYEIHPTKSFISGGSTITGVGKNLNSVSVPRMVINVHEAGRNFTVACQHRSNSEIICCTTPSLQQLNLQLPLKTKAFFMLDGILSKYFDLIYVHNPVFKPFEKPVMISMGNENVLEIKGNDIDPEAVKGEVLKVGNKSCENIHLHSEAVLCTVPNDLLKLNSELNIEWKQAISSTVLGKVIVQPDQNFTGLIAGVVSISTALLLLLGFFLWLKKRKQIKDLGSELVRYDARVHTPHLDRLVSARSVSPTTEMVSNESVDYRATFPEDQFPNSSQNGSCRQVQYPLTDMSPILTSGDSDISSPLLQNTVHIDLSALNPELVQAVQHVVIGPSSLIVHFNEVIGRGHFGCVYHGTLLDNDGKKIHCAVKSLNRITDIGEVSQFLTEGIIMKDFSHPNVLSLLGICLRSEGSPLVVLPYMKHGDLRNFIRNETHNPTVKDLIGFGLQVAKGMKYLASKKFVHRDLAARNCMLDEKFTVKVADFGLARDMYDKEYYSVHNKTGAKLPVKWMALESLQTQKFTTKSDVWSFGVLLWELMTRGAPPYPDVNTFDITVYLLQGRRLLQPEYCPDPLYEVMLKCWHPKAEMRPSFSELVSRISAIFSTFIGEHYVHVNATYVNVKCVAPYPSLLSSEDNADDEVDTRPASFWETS

`Nc1nc2ccc(Sc3nnc4ccc(NC5CCOCC5)nn34)cc2s1` [Example 1, 3-[(2-Amino-1,3-benzothiazol-6-yl)sulphanyl]-N-(tetrahydro-2H-pyran-4-yl)[1,2,4]triazolo[4,3-b]pyridazin-6-amine]: the IC50 in experiment [1] is less than 1000 nM; at MET [2] it was less than 100 nM.
With `CC(=O)Nc1nc2ccc(Sc3nnc4ccc(NC5CCOCC5)nn34)cc2s1` [Example 2, N-(6-{[6-(Tetrahydro-2H-pyran-4-ylamino)[1,2,4]triazolo[4,3-b]pyridazin-3-yl]sulphanyl}-1,3-benzothiazol-2-yl)acetamide], the IC50 in experiment [1] is less than 1000 nM; at MET [2] it was less than 100 nM; against MET [3] it was less than 100 nM.
For `O=C(Nc1nc2ccc(Sc3nnc4ccc(NC5CCOCC5)nn34)cc2s1)C1CC1` [Example 3, N-(6-{[6-(Tetrahydro-2H-pyran-4-ylamino)[1,2,4]triazolo[4,3-b]pyridazin-3-yl]sulphanyl}-1,3-benzothiazol-2-yl)cyclopropanecarboxamide], the IC50 is less than 1000 nM in experiment [1], less than 100 nM on MET [2] and less than 100 nM on MET [3].
On to `O=C(NCCN1CCOCC1)Nc1nc2ccc(Sc3nnc4ccc(NC5CCOCC5)nn34)cc2s1` [Example 4, 1-[2-(Morpholin-4-yl)ethyl]-3-(6-{[6-(tetrahydro-2H-pyran-4-ylamino)-[1,2,4]triazolo[4,3-b]pyridazin-3-yl]sulphanyl}-1,3-benzothiazol-2-yl)urea], for which the IC50 in experiment [1] was less than 1000 nM; on MET [2] it was less than 100 nM; against MET [3] it was less than 100 nM.
Consider `COCCC(=O)Nc1nc2ccc(Sc3nnc4ccc(NC5CCOCC5)nn34)cc2s1` [Example 5, 3-Methoxy-N-(6-{[6-(tetrahydro-2H-pyran-4-ylamino)[1,2,4]triazolo-[4,3-b]pyridazin-3-yl]sulphanyl}-1,3-benzothiazol-2-yl)propanamide], for which the IC50 in experiment [1] was less than 1000 nM; on MET [2], less than 100 nM; against MET [3], less than 100 nM.
For the compound `CN(C)CC(=O)Nc1nc2ccc(Sc3nnc4ccc(NC5CCOCC5)nn34)cc2s1` [Example 6, N^2,N^2-dimethyl-N-(6-{[6-(tetrahydro-2H-pyran-4-ylamino)[1,2,4]triazolo-[4,3-b]pyridazin-3-yl]sulphanyl}-1,3-benzothiazol-2-yl)glycinamide], the IC50 in experiment [1] was less than 1000 nM; at MET [2] it was less than 100 nM; against MET [3], less than 100 nM.
